Measured values reported in ChEMBL document CHEMBL3769391, “Identification of a new cyathane diterpene that induces mitochondrial and autophagy-dependent apoptosis and shows a potent in vivo anti-colorectal cancer activity” (Eur J Med Chem, 2016).

Key:
Assay type in all cases: functional
[1] = tested on: HCT-116; experiment: Induction of apoptosis in Bax deficient human HCT116 cells assessed as early apoptotic cells at […] after 24 hrs by Annexin V-FITC/propidium iodide staining based flow cytometry (reference value: 0.85%)
[2] = tested on: HCT-116; experiment: Induction of apoptosis in human HCT116 cells assessed as late apoptotic cells at […] after 24 hrs by Annexin V-FITC/propidium iodide staining based flow cytometry (reference value: 3.73%)
[3] = tested on: HCT-116; experiment: Induction of apoptosis in Bax deficient human HCT116 cells assessed as late apoptotic cells at […] after 24 hrs by Annexin V-FITC/propidium iodide staining based flow cytometry (reference value: 1.56%)
[4] = tested on: HCT-116; experiment: Induction of apoptosis in human HCT116 cells assessed as necrotic cells at […] after 24 hrs by Annexin V-FITC/propidium iodide staining based flow cytometry (reference value: 0.44%)
[5] = tested on: HCT-116; experiment: Induction of apoptosis in human HCT116 cells assessed as viable cells at […] after 24 hrs by Annexin V-FITC/propidium iodide staining based flow cytometry (reference value: 93.64%); conditions: HCT-116, 24 h, read-out: Activity
[6] = tested on: HCT-116; experiment: Induction of apoptosis in human HCT116 cells assessed as early apoptotic cells at […] after 24 hrs by Annexin V-FITC/propidium iodide staining based flow cytometry (reference value: 2.2%)
[7] = tested on: HCT-116; experiment: Induction of apoptosis in human HCT116 cells assessed as early apoptotic cells at 10 uM after 12 hrs by Annexin V-FITC/propidium iodide staining based flow cytometry (reference value: 1.13%)
[8] = tested on: HCT-116; experiment: Induction of apoptosis in human HCT116 cells assessed as late apoptotic cells at 10 uM after 12 hrs by Annexin V-FITC/propidium iodide staining based flow cytometry (reference value: 3.37%)

Structure (SMILES) | Activity [1] [%] | Activity [2] [%] | Activity [3] [%] | Activity [4] [%] | viability [5] [%] | Activity [6] [%] | Activity [7] [%] | Activity [8] [%]
CC(=O)N[C@@H](CS)C(=O)O [ACETYLCYSTEINE] | 1.21 | 5.62 | 1.75 | 0.7 | 91.8 | 1.86 | – | –
CO[C@H]1C(C=O)=CC[C@@H]2C3=C(C(C)C)CC[C@]3(C)CC[C@@]2(C)[C@H]1O | – | – | – | – | – | – | 3.83 | 3.68
OC(CS)C(O)CS (racemic) [DL-DITHIOTHREITOL] | 2.99 | 8.67 | 3.5 | 0.21 | 88 | 3.12 | – | –
